Test results from ChEMBL document CHEMBL4477227, “Synthesis and antibacterial evaluation of macrocyclic diarylheptanoid derivatives” (Bioorg Med Chem Lett, 2016).

What was measured:
Streptococcus pyogenes = assay: Antibacterial activity against Streptococcus pyogenes ATCC 700294 by microbroth dilution method; assay type: functional; conditions: Streptococcus pyogenes, ATCC 700294; read-out: MIC
Streptococcus pneumoniae = assay: Antibacterial activity against Streptococcus pneumoniae R6 by microbroth dilution method; assay type: functional; conditions: Streptococcus pneumoniae, R6; read-out: MIC
Acinetobacter baumannii = assay: Antibacterial activity against Acinetobacter baumannii ATCC 19606 by microbroth dilution method; assay type: functional, ATCC 19606 = CIP 70.34 = JCM 6841; conditions: Acinetobacter baumannii, ATCC 19606 = CIP 70.34 = JCM 6841; read-out: MIC
Bacillus subtilis = assay: Antibacterial activity against Bacillus subtilis ATCC 23857 by microbroth dilution method; assay type: functional; conditions: Bacillus subtilis, ATCC 23857; read-out: MIC
Staphylococcus aureus [1] = assay: Antibacterial activity against methicillin-resistant Staphylococcus aureus NRS70 by microbroth dilution method; assay type: functional; conditions: Staphylococcus aureus, NRS70; read-out: MIC
Proteus mirabilis = assay: Antibacterial activity against Proteus mirabilis ATCC 25933 by microbroth dilution method; assay type: functional
Enterococcus faecalis = assay: Antibacterial activity against Enterococcus faecalis ATCC 33186 by microbroth dilution method; assay type: functional; conditions: Enterococcus faecalis, ATCC 33186; read-out: MIC
Escherichia coli [2] = assay: Antibacterial activity against Escherichia coli K-12 by microbroth dilution method; assay type: functional
Staphylococcus aureus [3] = assay: Antibacterial activity against methicillin-sensitive Staphylococcus aureus ATCC 29213 by microbroth dilution method; assay type: functional; conditions: Staphylococcus aureus, ATCC 29213; read-out: MIC
[4] = test system: Mycobacterium tuberculosis; assay: Antitubercular activity against Mycobacterium tuberculosis H37Rv by microbroth dilution method; assay type: functional; conditions: Mycobacterium tuberculosis, H37Rv; read-out: MIC
Bacillus anthracis = assay: Antibacterial activity against Bacillus anthracis Sterne 34F2 by microbroth dilution method; assay type: functional; conditions: Bacillus anthracis, Sterne 34F2; read-out: MIC
Burkholderia cepacia = assay: Antibacterial activity against Burkholderia cepacia ATCC 25416 by microbroth dilution method; assay type: functional
Klebsiella pneumoniae = assay: Antibacterial activity against Klebsiella pneumoniae ATCC 33495 by microbroth dilution method; assay type: functional
Pseudomonas aeruginosa = assay: Antibacterial activity against Pseudomonas aeruginosa PAO1 by microbroth dilution method; assay type: functional
Escherichia coli [5] = assay: Antibacterial activity against Escherichia coli harboring TolC deletion mutant by microbroth dilution method; assay type: functional; conditions: Escherichia coli; read-out: MIC
Proteus vulgaris = assay: Antibacterial activity against Proteus vulgaris ATCC 33420 by microbroth dilution method; assay type: functional

Measured: MIC

COc1ccc2cc1Oc1cc(ccc1OC)CCC(NCCc1ccccn1)CCCC2 (stereo not drawn)
100 µg/mL: Streptococcus pneumoniae | Bacillus subtilis | [4] | Escherichia coli [5]
> 100 µg/mL: all other assays above

COc1ccc2cc1Oc1cc(ccc1OC)CCC(OC(=O)Nc1ccc(F)cc1)CCCC2 (stereo not drawn)
25 µg/mL: Staphylococcus aureus [1]
50 µg/mL: Enterococcus faecalis
> 100 µg/mL: all other assays above

COc1ccc2cc1Oc1cc(ccc1OC)CCC(OC(=O)NCCc1ccccc1)CCCC2 (stereo not drawn)
> 100 µg/mL: all assays above

COc1ccc2cc1Oc1cc(ccc1OC)CCC(NCCc1ccc(O)cc1)CCCC2 (stereo not drawn)
100 µg/mL: Streptococcus pyogenes | Streptococcus pneumoniae | Staphylococcus aureus [1] | Enterococcus faecalis | [4] | Escherichia coli [5]
50 µg/mL: Bacillus subtilis | Bacillus anthracis
> 100 µg/mL: all other assays above

COc1ccc2cc1Oc1cc(ccc1OC)CCC(OC(C)=O)CCCC2 (stereo not drawn)
12.5 µg/mL: Escherichia coli [5]
> 100 µg/mL: all other assays above

COc1ccc2cc1Oc1cc(ccc1OC)CCC(N)CCCC2 (stereo not drawn)
100 µg/mL: Bacillus subtilis | Bacillus anthracis | Escherichia coli [5]
> 100 µg/mL: Proteus mirabilis | Burkholderia cepacia | Klebsiella pneumoniae | Pseudomonas aeruginosa | Proteus vulgaris
200 µg/mL: all other assays above

COc1ccc2cc1Oc1cc(ccc1OC)CCC(NCCc1cccc(F)c1)CCCC2 (stereo not drawn)
25 µg/mL: Staphylococcus aureus [1] | Enterococcus faecalis | [4] | Escherichia coli [5]
12.5 µg/mL: Bacillus subtilis
50 µg/mL: Streptococcus pyogenes | Streptococcus pneumoniae | Acinetobacter baumannii | Staphylococcus aureus [3] | Bacillus anthracis
> 100 µg/mL: all other assays above

COc1ccc2cc1Oc1cc(ccc1OC)CCC(N1CCN(C)CC1)CCCC2 (stereo not drawn)
100 µg/mL: Streptococcus pneumoniae | Acinetobacter baumannii | Enterococcus faecalis | Staphylococcus aureus [3] | Bacillus anthracis
50 µg/mL: Bacillus subtilis | Staphylococcus aureus [1] | [4] | Escherichia coli [5]
> 100 µg/mL: all other assays above

CCN(CC)C1CCCCc2ccc(OC)c(c2)Oc2cc(ccc2OC)CC1 (stereo not drawn)
100 µg/mL: [4]
> 100 µg/mL: all other assays above

COc1ccc2cc1Oc1cc(ccc1OC)CCC(OS(=O)(=O)c1ccc(OC(F)(F)F)cc1)CCCC2 (stereo not drawn)
50 µg/mL: Staphylococcus aureus [1] | Enterococcus faecalis
100 µg/mL: Bacillus anthracis
> 100 µg/mL: all other assays above

COc1ccc2cc1Oc1cc(ccc1OC)CCC(OC(=O)Cc1ccccc1)CCCC2 (stereo not drawn)
> 100 µg/mL: all assays above

COc1ccc2cc1Oc1cc(ccc1OC)CCC(Nc1ccc(Cl)cc1)CCCC2 (stereo not drawn)
> 100 µg/mL: all assays above

COc1ccc2cc1Oc1cc(ccc1OC)CCC(NC(=O)NCCc1ccccc1)CCCC2 (stereo not drawn)
> 100 µg/mL: all assays above
